The values that follow come from patent publication US9505728B2, “Triazolone compounds and uses thereof” (INCEPTION 2, INC., priority 2012, dated 2016).

The target of this experiment is T1, Human PPARα (Homo sapiens, UniProt Q07869).
T1 construct: host or cells: proprietary non-human mammalian cells
T1 sequence (Q07869 1-468): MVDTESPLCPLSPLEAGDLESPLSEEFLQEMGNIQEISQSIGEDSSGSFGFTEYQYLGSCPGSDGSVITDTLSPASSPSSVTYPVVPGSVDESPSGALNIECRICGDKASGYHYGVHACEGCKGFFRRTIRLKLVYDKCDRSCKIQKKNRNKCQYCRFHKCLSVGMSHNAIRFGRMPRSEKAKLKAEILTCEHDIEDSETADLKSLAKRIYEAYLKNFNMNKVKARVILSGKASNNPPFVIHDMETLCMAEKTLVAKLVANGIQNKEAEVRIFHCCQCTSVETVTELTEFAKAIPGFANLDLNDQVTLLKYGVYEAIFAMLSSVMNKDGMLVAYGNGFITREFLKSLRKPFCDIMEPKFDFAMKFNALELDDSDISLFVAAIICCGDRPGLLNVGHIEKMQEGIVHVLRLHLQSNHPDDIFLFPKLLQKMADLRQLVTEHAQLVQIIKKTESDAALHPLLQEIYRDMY
The experiment in a line: Human PPARα Reporter Assay (luciferase). Format: cell-based. To be noted: human PPARα reporter cells, overnight incubation, antagonism; read-out: Luciferase IC50. In short, it runs like this:
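Agonist or antagonist activity read as luciferase light from engineered reporter cells carrying human PPARα and a responsive reporter gene. Cells got compound immediately on dispensing, incubated overnight, then treatment media swapped for luciferase detection reagent.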
For the compound `CCn1c(CCCc2ccc(-c3cccc(CC(=O)O)n3)cc2)nn(Cc2ccc(C(C)(C)C)cc2)c1=O` [Example 50, 2-(6-{4-[3-(1-{[4-(tert-Butyl)phenyl]methyl}-4-ethyl-5-oxo-1,2,4-triazolin-3-yl)propyl]phenyl}-2-pyridyl) acetic acid], the half-inhibitory concentration (IC50) turned out to be 0.568 µM.

Consider `CCn1c(CCCc2ccc(-c3ccc(OC)c(CC(=O)O)c3)cn2)nn(Cc2ccc(C(C)(C)C)cc2)c1=O` [Example 198, 2-(5-(6-(3-(1-(4-(tert-Butyl)benzyl)-4-ethyl-5-oxo-4,5-dihydro-1H-1,2,4-triazol-3-yl)propyl)pyridin-3-yl)-2-methoxyphenyl)acetic acid], for which the IC50 worked out at 0.623 µM.

As to `CCn1c(CCCc2ccc(-c3ccc(OC)c(NS(=O)(=O)CC)n3)cc2)nn(Cc2ccc(C(C)(C)C)cc2)c1=O` [Example 189, 1-{[4-(tert-Butyl)phenyl]methyl}-4-ethyl-3-[3-(4-{6-[(ethylsulfonyl)amino]-5-methoxy(2-pyridyl)}phenyl)propyl]-1,2,4-triazolin-5-one], the half-inhibitory concentration (IC50) was found to be 0.036 µM.

On to `CCCOc1ccc(-c2ccc(CCCc3nn(Cc4ccc(C(C)(C)C)cc4)c(=O)n3CC)cc2)cc1C(=O)O` [Example 168, 4′-(3-(1-(4-(tert-Butyl)benzyl)-4-ethyl-5-oxo-4,5-dihydro-1H-1,2,4-triazol-3-yl)propyl)-4-propoxy-[1,1′-biphenyl]-3-carboxylic acid], for which the IC50 was 0.009 µM.

With `CCn1c(CCCc2ccc(-c3cnc(C4(O)COC4)nc3)cc2)nn(Cc2ccc(C(C)(C)C)cc2)c1=O` [Example 173, 1-(4-(tert-Butyl)benzyl)-4-ethyl-3-(3-(4-(2-(3-hydroxyoxetan-3-yl)pyrimidin-5-yl)phenyl)propyl)-1H-1,2,4-triazol-5(4H)-one], the concentration for half-maximal inhibition (IC50) came out at 0.126 µM.

Regarding `CCn1c(CCCc2ccc(-c3ccc(NS(=O)(=O)c4ccccc4)c(C)n3)cc2)nn(Cc2ccc(C(C)(C)C)cc2)c1=O` [Example 124, 1-{[4-(tert-Butyl)phenyl]methyl}-4-ethyl-3-[3-(4-{6-methyl-5-[(phenylsulfonyl)amino](2-pyridyl)}phenyl)propyl]-1,2,4-triazolin-5-one], the half-maximal inhibitory concentration (IC50) is 0.29 µM.

For the compound `CCOc1ccc(-c2ccc(CCCc3nn(Cc4ccc(C(C)(C)C)cc4)c(=O)n3C)cc2)cc1CC(=O)O` [Example 95, 2-(4′-(3-(1-(4-(tert-Butyl)benzyl)-4-methyl-5-oxo-4,5-dihydro-1H-1,2,4-triazol-3-yl)propyl)-4-ethoxy-[1,1′-biphenyl]-3-yl)acetic acid], the IC50 came to 0.015 µM.

As to `CCn1c(CCCc2ccc(-c3cnc(C4(F)COC4)s3)cc2)nn(Cc2ccc(C(C)(C)C)cc2)c1=O` [Example 202, 1-(4-(tert-Butyl)benzyl)-4-ethyl-3-(3-(4-(2-(3-fluorooxetan-3-yl)thiazol-5-yl)phenyl)propyl)-1H-1,2,4-triazol-5(4H)-one], the half-maximal inhibitory concentration (IC50) amounted to 0.051 µM.

With `CCn1c(CCCc2ccc(-c3cccc(NC(=O)Nc4ccccc4)n3)cc2)nn(Cc2ccc(C(C)(C)C)cc2)c1=O` [Example 153, 1-(6-(4-(3-(1-(4-(tert-Butyl)benzyl)-4-ethyl-5-oxo-4,5-dihydro-1H-1,2,4-triazol-3-yl)propyl)phenyl)pyridin-2-yl)-3-phenylurea], the IC50 is 0.947 µM.

Turning to `CCn1c(CCCc2ccc(-c3ccc(OC)c(CC(=O)O)c3)cc2O)nn(Cc2ccc(C(C)(C)C)cc2)c1=O` [Example 146, 2-(4′-(3-(1-(4-(tert-Butyl)benzyl)-4-ethyl-5-oxo-4,5-dihydro-1H-1,2,4-triazol-3-yl)propyl)-3′-hydroxy-4-methoxy-[1,1′-biphenyl]-3-yl) acetic acid], the IC50 was 0.098 µM.

`CCCCn1c(CCCc2ccc(-c3ccc(OCC)c(CC(=O)O)c3)cc2)nn(Cc2ccc(C(C)(C)C)cc2)c1=O` [Example 69, 2-(4′-(3-(4-Butyl-1-(4-(tert-butyl)benzyl)-5-oxo-4,5-dihydro-1H-1,2,4-triazol-3-yl)propyl)-4-ethoxy-[1,1′-biphenyl]-3-yl)acetic acid]: the concentration for half-maximal inhibition (IC50) turned out to be 0.024 µM.

On to `CCNC(=O)Nc1cccc(-c2ccc(CCCc3nn(Cc4ccc(C(C)(C)C)cc4)c(=O)n3CC)cc2)n1` [Example 171, 1-(6-(4-(3-(1-(4-(tert-Butyl)benzyl)-4-ethyl-5-oxo-4,5-dihydro-1H-1,2,4-triazol-3-yl)propyl)phenyl)pyridin-2-yl)-3-ethylurea], for which the IC50 is 0.816 µM.

In the case of `CCn1c(CCCc2ccc(-c3ccc(OC)c(CNS(=O)(=O)c4ccccc4)c3)cc2)nn(Cc2ccc(C(C)(C)C)cc2)c1=O` [Example 185, 1-{[4-(tert-Butyl)phenyl]methyl}-4-ethyl-3-{3-[4-(4-methoxy-3-{[(phenylsulfonyl)amino]methyl}phenyl)phenyl]propyl}-1,2,4-triazolin-5-one], the IC50 was 0.423 µM.

As for `CCn1c(CCCc2ccc(-c3cccc(CC(=O)O)c3)cc2)nn(Cc2ccc(C(F)(F)F)cc2)c1=O` [Example 24, 2-(4′-(3-(4-Ethyl-5-oxo-1-(4-(trifluoromethyl)benzyl)-4,5-dihydro-1H-1,2,4-triazol-3-yl)propyl)-[1,1′-biphenyl]-3-yl)acetic acid], the half-maximal inhibitory concentration (IC50) came out at 0.579 µM.

On to `CCn1c(CCCc2ccc(-c3ccc(C(F)(F)F)c(N)n3)cc2)nn(Cc2ccc(C(C)(C)C)cc2)c1=O` [Example 161, 3-(3-{4-[6-Amino-5-(trifluoromethyl)(2-pyridyl)]phenyl}propyl)-1-{[4-(tert-butyl)phenyl]methyl}-4-ethyl-1,2,4-triazolin-5-one], for which the IC50 turned out to be 0.638 µM.

Regarding `CCn1c(CCCc2ccc(-c3ccc(OC)c(CCNS(=O)(=O)c4ccccc4)c3)cc2)nn(Cc2ccc(C(C)(C)C)cc2)c1=O` [Example 182, 1-{[4-(tert-Butyl)phenyl]methyl}-4-ethyl-3-{3-[4-(4-methoxy-3-{2-[(phenylsulfonyl)amino]ethyl}phenyl)phenyl]propyl}-1,2,4-triazolin-5-one], the concentration for half-maximal inhibition (IC50) was determined as 0.414 µM.

Regarding `CCn1c(CCCc2ccc(-c3csc(C4(O)COC4)n3)cc2)nn(Cc2ccc(C(C)(C)C)cc2)c1=O` [Example 203, 1-(4-(tert-Butyl)benzyl)-4-ethyl-3-(3-(4-(2-(3-hydroxyoxetan-3-yl)thiazol-4-yl)phenyl)propyl)-1H-1,2,4-triazol-5(4H)-one], the 50% inhibitory concentration (IC50) is 0.873 µM.

As to `CCn1c(CCCc2ccc(-c3cc(C(=O)O)cc(C(F)(F)F)c3)cc2)nn(Cc2ccc(C(C)(C)C)cc2)c1=O` [Example 41, 4′-(3-(1-(4-(tert-Butyl)benzyl)-4-ethyl-5-oxo-4,5-dihydro-1H-1,2,4-triazol-3-yl)propyl)-5-(trifluoromethyl)-[1,1′-biphenyl]-3-carboxylic acid], the IC50 amounted to 0.51 µM.

Turning to `CCn1c(CCCc2ccc(-c3ccc(C4(O)COC4)cn3)cc2)nn(Cc2ccc(C(C)(C)C)cc2)c1=O` [Example 197, 1-(4-(tert-Butyl)benzyl)-4-ethyl-3-(3-(4-(5-(3-hydroxyoxetan-3-yl)pyridine-2-yl)phenyl)propyl)-1H-1,2,4-triazol-5(4H)-one], the half-maximal inhibitory concentration (IC50) turned out to be 0.106 µM.

In the case of `CCn1c(CCCc2ccc(-c3cccc(NC(=O)Cc4ccccc4)n3)cc2)nn(Cc2ccc(C(C)(C)C)cc2)c1=O` [Example 101, N-(6-{4-[3-(1-{[4-(tert-Butyl)phenyl]methyl}-4-ethyl-5-oxo(1,2,4-triazolin-3-yl))propyl]phenyl}(2-pyridyl))-2-phenylacetamide], the IC50 is 0.402 µM.

In the case of `CCn1c(CCCc2ccc(-c3cc(C(F)(F)F)cc(CC(=O)O)n3)cc2)nn(Cc2ccc(C(C)(C)C)cc2)c1=O` [Example 48, 2-(6-{4-[3-(1-{[4-(tert-Butyl)phenyl]methyl}-4-ethyl-5-oxo(1,2,4-triazolin-3-yl))propyl]phenyl}-4-(trifluoromethyl)-2-pyridyl)acetic acid], the IC50 stood at 0.426 µM.

`CCn1c(CCCc2ccc(-c3ccc4[nH]cc(C(=O)O)c4c3)cc2)nn(Cc2ccc(C(C)(C)C)cc2)c1=O` [Example 70, 5-(4-(3-(1-(4-(tert-Butyl)benzyl)-4-ethyl-5-oxo-4,5-dihydro-1H-1,2,4-triazol-3-yl)propyl)phenyl)-1H-indole-3-carboxylic acid]: the half-inhibitory concentration (IC50) came out at 0.27 µM.

Take `CCn1c(CCCc2ccc(-c3cccc(CC(=O)O)c3)cc2)nn(Cc2ccc(C3CC3)cc2)c1=O` [Example 22, 2-(4′-(3-(1-(4-Cyclopropylbenzyl)-4-ethyl-5-oxo-4,5-dihydro-1H-1,2,4-triazol-3-yl)propyl)-[1,1′-biphenyl]-3-yl)acetic acid]: the concentration for half-maximal inhibition (IC50) stood at 0.612 µM.

As to `CCn1c(CCCc2ccc(-c3cccc(NC(=O)C4CC4)n3)cc2)nn(Cc2ccc(C(C)(C)C)cc2)c1=O` [Example 102, N-(6-{4-[3-(1-{[4-(tert-Butyl)phenyl]methyl}-4-ethyl-5-oxo(1,2,4-triazolin-3-yl))propyl]phenyl}(2-pyridyl))cyclopropylcarboxamide], the IC50 came to 0.695 µM.

In the case of `CCn1c(CCCc2ccc(-c3cccc(CC(=O)O)c3F)cc2)nn(Cc2ccc(C(C)(C)C)cc2)c1=O` [Example 18, 2-(4′-(3-(1-(4-(tert-Butyl)benzyl)-4-ethyl-5-oxo-4,5-dihydro-1H-1,2,4-triazol-3-yl)propyl)-2-fluoro-[1,1′-biphenyl]-3-yl)acetic acid], the IC50 came to 1.42 µM.

For `CCn1c(CCCc2ccc(-c3ccc(OC)c(N)n3)cc2)nn(Cc2ccc(C(C)(C)C)cc2)c1=O` [Example 58, 3-{3-[4-(6-Amino-5-methoxy(2-pyridyl))phenyl]propyl}-1-{[4-(tert-butyl)phenyl]methyl}-4-ethyl-1,2,4-triazolin-5-one], the IC50 came to 0.071 µM.
